Data reported in ChEMBL document CHEMBL1201862, “PubChem BioAssay data set” (2004).
The source made the active and inactive calls. Rule as the data show it: actives have a measured IC50 and inactives only a lower limit.

Target: Envelope glycoprotein gp160 (Human immunodeficiency virus 1, UniProt Q6QLK5)
Assay: inhibitors of HIV fusion peptide binding, primary screen, biochemical, uHTS, fluorescence dequenching (AID 1986)

Envelope glycoprotein gp160, sequence (Q6QLK5 whole entry, the tested form may be a part): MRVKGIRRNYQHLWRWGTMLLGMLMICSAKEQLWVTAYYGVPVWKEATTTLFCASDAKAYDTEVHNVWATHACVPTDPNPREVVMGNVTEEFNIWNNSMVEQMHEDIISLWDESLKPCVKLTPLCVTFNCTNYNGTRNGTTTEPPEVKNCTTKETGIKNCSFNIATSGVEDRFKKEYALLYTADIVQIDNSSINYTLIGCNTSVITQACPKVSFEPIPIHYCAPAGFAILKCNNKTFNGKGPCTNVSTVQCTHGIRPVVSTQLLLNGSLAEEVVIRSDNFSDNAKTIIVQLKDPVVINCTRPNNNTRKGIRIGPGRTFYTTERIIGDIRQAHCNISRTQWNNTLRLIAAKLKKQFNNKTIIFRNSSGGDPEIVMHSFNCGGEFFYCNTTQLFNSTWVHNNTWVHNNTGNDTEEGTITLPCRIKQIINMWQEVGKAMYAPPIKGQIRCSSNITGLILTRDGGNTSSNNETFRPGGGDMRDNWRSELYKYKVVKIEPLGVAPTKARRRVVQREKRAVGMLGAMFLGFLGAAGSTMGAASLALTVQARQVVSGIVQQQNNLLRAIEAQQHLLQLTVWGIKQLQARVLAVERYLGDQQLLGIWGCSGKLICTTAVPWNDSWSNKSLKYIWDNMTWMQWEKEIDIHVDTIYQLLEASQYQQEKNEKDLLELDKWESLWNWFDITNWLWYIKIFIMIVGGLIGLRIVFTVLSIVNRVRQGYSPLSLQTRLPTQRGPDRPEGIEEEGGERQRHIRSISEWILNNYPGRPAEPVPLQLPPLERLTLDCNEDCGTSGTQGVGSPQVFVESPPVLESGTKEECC

**Q.** For COc1ccc(-c2coc3c(C)c4oc(=O)c(CCC(=O)O)c(C)c4cc23)cc1, which IC50 is on record?
**A.** 41.7 µM (active)
